Tests used:
[1] = target: T1, human Smo (amino acids 181-787) (Homo sapiens, UniProt Q99835); experiment: Smo radioligand competition binding assay (displacement of 3H-PF-03451358 from HEK293 membranes); conditions: for inhibition at 0.05 µM: 0.05 μM test compound, displacement of 3H-PF-03451358, read-out: SMO % inh. @ 0.05 μM; for IC50: radioligand competition binding
T1 construct: expressed in transfected cells; membrane preparation
Procedure: Membranes were prepared from a stable cell line created in HEK293FlpIn-TetR cells (Invitrogen) using FIp recombinase-mediated insertion of the pSecTag-FRT/V5-His vector containing a cDNA encoding amino acids 181-787 of human Smo fused to the murine lgk leader sequence to produce a cell surface expressed Smo 181-781 protein. Hygromycin-resistant clones were obtained and stained for LacZ expression (no expression indicates a correct knock-in of my fusion cDNA). LacZ-negative cells were analyzed for binding tritiated Smo antagonist PF-03451358. For membrane preparation, the HEK293 cells expressing Smo 181-781 were grown to 90% confluence in nine to fifteen 245 mm×245 mm×22 mm dishes, washed with Dulbecco's PBS (15 ml per dish) and harvested via scraping in 10 ml of DPBS. The cells were collected and centrifuged at 1500 rpm (400×g) for 10 min at 4° C. The cell pellets were re-suspended in 40 ml of cold DPBS and washed by centrifugation at 2300 rpm (950×g max) for 10 minutes at 4° C. The supernatant was aspirated and the cell pellet was snap frozen in a methanol/dry ice bath and stored at −70° C. For membrane preparation, 15 ml of Membrane Preparation Buffer (50 mM Tris-HCl pH 7.5, 250 mM sucrose with Roche complete protease cocktail tablets) is added to the tube containing the cell pellet, then cells are rapidly thawed, and homogenized using an Ultra-Turrax T8 (IKA Labortechnik) set on “6” for 15 seconds for 5-6 times in icy water bath. This homogenate was diluted up to 50 ml using Membrane Preparation Buffer and centrifuged at 35,000 rpm in a Beckman Ti45 rotor (140,000×g) for 35 minutes at 4° C. followed by aspiration of the supernatant and re-suspension of the pellet in 5 ml of Assay Buffer (50 mM Tris-HCl pH 7.5, 100 mM NaCl, 25 mM MgCl2, 1 mM EDTA, and 0.1% protease free bovine serum albumin). The re-suspended pellet is then homogenized in a glass tissue grinder. The re-suspended membranes are aliquoted (0.5 ml aliquots), snap frozen and stored at −70° C. Total protein in the membrane preparation is determined using the Pierce BCA protein assay (Pierce Chemical).
For the binding competition assay, 100 μl of Assay Buffer is added to all the wells of a 96 well GF/B filter plate (Millipore MultiScreen-HTS-FB cat# MSFBN6B50) for 10 minutes to pre-wet the filter prior to evacuation of the buffer (8 inches Hg for 8 seconds). To the pre-wet wells is added: 20 μl of Assay Buffer, 10 μl diluted test agent, 20 μl of ^3H-PF-3451358 (15 nM stock solution), and 50 μl of membrane preparation (40 μg total protein per well). The plates are sealed and mixed at room temperature for 5 min, incubated at room temperature for 2 hours, then washed 5 times with 100 μl/each of wash buffer and vacuum dried for 8 seconds at 8 inch Hg. The plate is then dried for one hour in a 60° C. oven prior to the addition of 45 μl of Microscint 20 (Packard, #6013621) to each well and incubation at RT for 30 minutes to 1 hour. The plate is counted in a TopCount scintillation counter (Perkin Elmer).
Data analysis uses Excel for % Inhibition and Graphpad Prism for IC50 calculation. Total binding (TB, in the absence of inhibitors)=average of ^3H PF-03451358 3 nM+SMO membrane (40 μg/wells (approx 5000-7000 CPM). Non-specific binding (NSB)=average of ^3H PF-03451358 (3 nM)+cold PF-03451358 (30 μM)+SMO membrane (approx 600-1200 CPM). Specific binding (SB)=(total binding−non-specific binding). % Inhibition=[1−(compound Specific binding/control Specific binding)]×100%. IC50 is calculated by fitting the data to the four parameter sigmoidal dose-response curve (variable slope) Y=Bottom+(Top-Bottom)/(1+10̂((LogEC50−X)*HillSlope)). X is the logarithm of the inhibitor concentration. Y is the response; Y starts at Bottom and goes to Top with a sigmoid shape.

[2] = test system: Gli-Luc/MEF cells (Smo); experiment: Gli-Luc/MEF assay (Shh-stimulated luciferase reporter under the Gli response element); format: cell-based, mouse; conditions: Mus musculus, MEF, 48 h
Procedure: The Gli-Luc/MEF cells obtained from Gli-Luc transgenic mice (Pfizer CoE, Genetically Modified Mice) contain a luciferase reporter gene under the control of the Gli response element. Luciferase activity stimulated with Sonic hedgehog ligand was inhibited by Smo inhibitors, and IC50 was subsequently calculated.
Plates were incubated at 37° C. and 5% CO2 overnight. On day two, cells were dosed with test compounds at a final concentration ranging from […] to 50 μM at a 3-time series dilution. Immediately after dosing cells with compounds, recombinant mouse sonic hedgehog (Shh, R&D Systems 464-SH) was added to a final concentration of 2 μg/mL. The cells were incubated with compounds and Shh for 48 hours at 37° C. and 5% CO2. Luciferase assays were conducted on Day 4 using the Bright-Glo Luciferase assay system (Promega E2620) according to Promega's protocol. Briefly, Bright-Glo luciferase reagent was made up and 25 uL were added to each well of the 384-well plate containing media. Plates were kept at room temperature for 5 minutes, and then read on an Envision Luminescence plate reader (Perkin-Elmer). IC50 of the inhibition was calculated by using GraphPad Prism.

T1 sequence (Q99835 181-787): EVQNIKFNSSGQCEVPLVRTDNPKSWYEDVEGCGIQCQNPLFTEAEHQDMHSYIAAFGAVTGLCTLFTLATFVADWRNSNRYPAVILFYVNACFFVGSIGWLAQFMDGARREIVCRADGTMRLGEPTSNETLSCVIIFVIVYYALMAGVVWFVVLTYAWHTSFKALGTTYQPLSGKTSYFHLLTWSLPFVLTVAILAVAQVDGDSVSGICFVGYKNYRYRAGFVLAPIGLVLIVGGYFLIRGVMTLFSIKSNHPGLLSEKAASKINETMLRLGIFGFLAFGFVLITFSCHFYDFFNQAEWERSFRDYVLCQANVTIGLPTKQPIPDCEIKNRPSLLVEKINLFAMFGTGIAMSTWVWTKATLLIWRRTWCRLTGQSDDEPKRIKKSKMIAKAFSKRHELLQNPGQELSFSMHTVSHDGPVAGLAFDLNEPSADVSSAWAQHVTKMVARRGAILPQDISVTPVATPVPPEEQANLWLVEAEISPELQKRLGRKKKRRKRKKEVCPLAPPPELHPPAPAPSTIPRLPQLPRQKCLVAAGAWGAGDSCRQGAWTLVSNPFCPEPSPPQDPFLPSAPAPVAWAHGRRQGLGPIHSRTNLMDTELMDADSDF

Compound CC(=O)N[C@H]1[C@@H]2CN(c3cc(-c4nc5ccccc5n4C)c(Cl)cn3)C[C@@H]21 [Example A-9, N-{(1R,5S,6S)-3-[5-chloro-4-(1-methyl-1H-benzimidazol-2-yl)pyridin-2-yl]-3-azabicyclo[3.1.0]hex-6-yl}acetamide] has an inhibition at 0.05 µM [1] of 74%, an IC50 [1] of 189 nM and an IC50 [2] of 23 nM.
Compound Cc1cn(C2CN(c3cc(-c4nc5ccccc5n4C)c(Cl)cn3)C2)c(=O)[nH]c1=O [Example A-121, 1-{1-[5-chloro-4-(1-methyl-1H-benzimidazol-2-yl)pyridin-2-yl]azetidin-3-yl}-5-methylpyrimidine-2,4(1H,3H)-dione] has an inhibition at 0.05 µM [1] of 62% and an IC50 [2] of 94 nM.
With CC(=O)NC1CCN(c2cc(-c3nc4ccccc4n3C)c(F)cn2)CC1 [Example D-14, N-{1-[5-fluoro-4-(1-methyl-1H-benzimidazol-2-yl)pyridin-2-yl]piperidin-4-yl}acetamide] the inhibition at 0.05 µM [1] was 97%, the IC50 [1] was 19 nM and the IC50 [2] was 17.2 nM.
CN(C)CC(=O)N1CCN(c2ncc(Cl)c(-c3nc4ccccc4n3C)n2)CC1 [Example C-15, 2-{4-[5-chloro-4-(1-methyl-1H-benzimidazol-2-yl)pyrimidin-2-yl]piperazin-1-yl}-N,N-dimethyl-2-oxoethanamine] was tested, and the inhibition at 0.05 µM [1] was 95%, the IC50 [1] was 64 nM and the IC50 [2] was 8.9 nM.
Cn1c(-c2cc(NCCO)ncc2Cl)nc2ccccc21 [Example A-172, 2-{[5-chloro-4-(1-methyl-1H-benzimidazol-2-yl)pyridin-2-yl]amino}ethanol] was tested, and the inhibition at 0.05 µM [1] was 80%, the IC50 [1] was 107 nM and the IC50 [2] was 52 nM.
Compound CC(=O)N1CCCN(c2cc(-c3nc4ccccc4n3C)ccn2)CC1 [Example A-154, 2-[2-(4-acetyl-1,4-diazepan-1-yl)pyridin-4-yl]-1-methyl-1H-benzimidazole] has an inhibition at 0.05 µM [1] of 90%, an IC50 [1] of 33 nM and an IC50 [2] of 20 nM.
In the case of Cn1c(-c2cc(NCCS(N)(=O)=O)ncc2Cl)nc2ccccc21 [Example A-165, 2-{[5-chloro-4-(1-methyl-1H-benzimidazol-2-yl)pyridin-2-yl]amino}ethanesulfonamide], the inhibition at 0.05 µM [1] is reported as 62%, the IC50 [1] is reported as 374 nM and the IC50 [2] is reported as 280 nM.
In the case of CC(=O)N(C)C1CCN(c2cc(-c3nc4ccccc4n3C)c(Cl)cn2)C1 (centres unmarked) [Example A-183, N-{1-[5-chloro-4-(1-methyl-1H-benzimidazol-2-yl)pyridin-2-yl]pyrrolidin-3-yl}-N-methylacetamide], the inhibition at 0.05 µM [1] is reported as 89%, the IC50 [1] is reported as 81 nM and the IC50 [2] is reported as 65 nM.
Compound Cn1c(-c2cc(N3CCC(N4CCNC(=O)C4=O)CC3)ncc2Cl)nc2ccccc21 [Example A-98, 1-{1-[5-chloro-4-(1-methyl-1H-benzimidazol-2-yl)pyridin-2-yl]piperidin-4-yl}piperazine-2,3-dione] has an inhibition at 0.05 µM [1] of 85%, an IC50 [1] of 122 nM and an IC50 [2] of 66 nM.
For Cn1c(-c2cc(N3CCC4(CC3)CNC(=O)O4)ncc2Cl)nc2ccccc21 [Example A-198, 8-[5-chloro-4-(1-methyl-1H-benzimidazol-2-yl)pyridin-2-yl]-1-oxa-3,8-diazaspiro[4.5]decan-2-one], the inhibition at 0.05 µM [1] was 87%, the IC50 [1] was 9 nM and the IC50 [2] was 7 nM.
In the case of Cn1c(-c2nc(N3CCN(C(=O)CO)CC3)ncc2Cl)nc2ccccc21 [Example C-18, 2-{4-[5-chloro-4-(1-methyl-1H-benzimidazol-2-yl)pyrimidin-2-yl]piperazin-1-yl}-2-oxoethanol], the inhibition at 0.05 µM [1] is reported as 98%, the IC50 [1] is reported as 15 nM and the IC50 [2] is reported as 36 nM.
For C[C@@H]1CN(c2cc(-c3nc4ccccc4n3C)c(Cl)cn2)CCN1 [Example A-157, 2-{5-chloro-2-[(3R)-3-methylpiperazin-1-yl]pyridin-4-yl}-1-methyl-1H-benzimidazole], the inhibition at 0.05 µM [1] was 95%, the IC50 [1] was 35 nM and the IC50 [2] was 24 nM.
Cn1c(-c2cc(N3CCOCC(Cc4ncccn4)C3)ncc2Cl)nc2ccccc21 (centres unmarked) [Example A-112, 2-{5-chloro-2-[6-(pyrimidin-2-ylmethyl)-1,4-oxazepan-4-yl]pyridin-4-yl}-1-methyl-1H-benzimidazole] gave an inhibition at 0.05 µM [1] of 72%, an IC50 [1] of 159 nM and an IC50 [2] of 116 nM.
Work on Cn1c(-c2cc(N3C[C@@H](O)[C@H](O)C3)ncc2Cl)nc2ccccc21 [Example A-127, (3R,4R)-1-[5-chloro-4-(1-methyl-1H-benzimidazol-2-yl)pyridin-2-yl]pyrrolidine-3,4-diol] yielded an inhibition at 0.05 µM [1] of 57% and an IC50 [2] of 128 nM.
Work on Cn1c(-c2ccnc(N3CCCNCC3)c2)nc2ccccc21 [Example A-13, 2-[2-(1,4-diazepan-1-yl)pyridin-4-yl]-1-methyl-1H-benzimidazole] yielded an inhibition at 0.05 µM [1] of 66%, an IC50 [1] of 423 nM and an IC50 [2] of 89 nM.
COCCc1nnc2n1CCN(c1cc(-c3nc4ccccc4n3C)c(Cl)cn1)C2 [Example A-83, 7-[5-chloro-4-(1-methyl-1H-benzimidazol-2-yl)pyridin-2-yl]-3-(2-methoxyethyl)-5,6,7,8-tetrahydro[1,2,4]triazolo[4,3-a]pyrazine] gave an inhibition at 0.05 µM [1] of 91%, an IC50 [1] of 49 nM and an IC50 [2] of 23 nM.
Cn1c(-c2ccnc(N3CCC(N4CCOC4=O)CC3)c2)nc2ccccc21 [Example A-15, 3-{1-[4-(1-methyl-1H-benzimidazol-2-yl)pyridin-2-yl]piperidin-4-yl}-1,3-oxazolidin-2-one] was tested, and the inhibition at 0.05 µM [1] was 53%, the IC50 [1] was 404 nM and the IC50 [2] was 180 nM.
Work on Cn1c(-c2cc(NCCN)ncc2Cl)nc2ccccc21 [Example A-142, N-[5-chloro-4-(1-methyl-1H-benzimidazol-2-yl)pyridin-2-yl]ethane-1,2-diamine] yielded an inhibition at 0.05 µM [1] of 44%.
Work on CC(=O)NC1CCN(c2cc(-c3nc4ccccc4n3C)c(Cl)cn2)C1 (stereo in doubt) [Example A-134, N-{(3S)-1-[5-chloro-4-(1-methyl-1H-benzimidazol-2-yl)pyridin-2-yl]pyrrolidin-3-yl}acetamide] yielded an inhibition at 0.05 µM [1] of 48%.
Cn1c(-c2cc(N3CC(c4cccnn4)C3)ncc2Cl)nc2ccccc21 [Example A-139, 2-[5-chloro-2-(3-pyridazin-3-ylazetidin-1-yl)pyridin-4-yl]-1-methyl-1H-benzimidazole] was tested, and the inhibition at 0.05 µM [1] was 42%.
In the case of COC(=O)N1CCN(c2nccc(-c3nc4ccccc4n3C)n2)CC1 [Example C-6, Methyl 4-[4-(1-methyl-1H-benzimidazol-2-yl)pyrimidin-2-yl]piperazine-1-carboxylate], the inhibition at 0.05 µM [1] is reported as 27%.

Reference: patent publication US20120157471A1, “BENZIMIDAZOLE DERIVATIVES” (PFIZER INC., priority 2009, published 2012)
